Assay results taken from article PMC10314922, “Fluorescence lifetime FRET assay for live-cell high-throughput screening of the cardiac SERCA pump yields multiple classes of small-molecule allosteric modulators” (Scientific Reports, 2023).
Values joined by “and” are separate entries in the source; they are usually repeats but may differ in a detail not shown here. Equal values may be shown once. “Also recorded” adds a separate entry of the source.

Assays:
SERCA2a [1] = biological target: T1, SERCA2a (Sus scrofa, UniProt P11607); assay: NADH-linked Ca2+-ATPase activity assay in pig cardiac SR (pCSR) vesicles; assay type: biochemical; conditions: for Ca2+-ATPase C10: concentration yielding 10% effect; for Ca2+-ATPase ΔFMAX / Ca2+-ATPase ΔFMID: maximal compound effect vs DMSO control, pCSR; for Effect on Ca2+-ATPase activity (category, Fig. 4A): activators, categories activate / uncouple / inhibit
T1 construct: Cardiac SR vesicles were isolated from fresh porcine left ventricular tissue using differential centrifugation; from tissue; host or cells: porcine left ventricular tissue (cardiac SR vesicles)
T1 sequence (P11607 1-997 isoform P11607-2): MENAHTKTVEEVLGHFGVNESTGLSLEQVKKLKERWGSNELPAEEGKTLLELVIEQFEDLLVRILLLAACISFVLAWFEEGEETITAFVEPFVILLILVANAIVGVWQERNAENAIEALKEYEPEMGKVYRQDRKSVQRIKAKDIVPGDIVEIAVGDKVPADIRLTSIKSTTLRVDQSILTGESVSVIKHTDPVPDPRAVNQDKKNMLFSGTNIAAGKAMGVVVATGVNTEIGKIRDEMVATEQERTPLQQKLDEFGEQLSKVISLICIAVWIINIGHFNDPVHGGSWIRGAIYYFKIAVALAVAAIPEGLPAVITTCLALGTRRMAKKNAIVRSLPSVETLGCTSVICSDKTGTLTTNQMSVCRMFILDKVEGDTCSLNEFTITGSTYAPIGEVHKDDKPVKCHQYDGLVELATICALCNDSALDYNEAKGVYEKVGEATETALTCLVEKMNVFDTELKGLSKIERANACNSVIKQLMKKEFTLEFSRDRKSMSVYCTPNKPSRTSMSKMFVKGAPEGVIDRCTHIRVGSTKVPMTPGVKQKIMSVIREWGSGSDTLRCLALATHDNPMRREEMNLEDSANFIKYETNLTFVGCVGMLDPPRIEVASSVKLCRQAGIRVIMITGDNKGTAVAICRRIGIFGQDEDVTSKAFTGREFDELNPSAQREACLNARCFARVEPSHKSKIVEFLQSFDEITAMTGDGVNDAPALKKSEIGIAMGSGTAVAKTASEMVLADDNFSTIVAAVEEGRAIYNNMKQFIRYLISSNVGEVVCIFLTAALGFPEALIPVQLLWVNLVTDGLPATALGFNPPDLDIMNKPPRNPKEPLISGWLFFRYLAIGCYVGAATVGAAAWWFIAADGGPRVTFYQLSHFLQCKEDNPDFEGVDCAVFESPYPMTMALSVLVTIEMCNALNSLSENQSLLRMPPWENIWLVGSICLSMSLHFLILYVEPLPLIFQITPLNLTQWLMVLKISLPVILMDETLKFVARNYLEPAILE
Method: (§1) Cardiac SR vesicles were isolated from fresh porcine left ventricular tissue using differential centrifugation of the homogenized tissue as previously described. The SR vesicles were flash-frozen and stored at − 80 °C until needed. The SERCA concentration in the ER preparations purified from HEK cell homogenate is at least 10 times less than in purified porcine cardiac SR[20], but there was sufficient expression of the fluorescent SERCA2a biosensor in HEK cells to detect FRET with high precision by FLT[22],[23],[26].
Functional assays were performed using porcine cardiac SR (pCSR) vesicles. An enzyme-coupled, NADH-linked ATPase assay was used to measure SERCA ATPase activity in 384-well microplates. Each well contained 50 mM MOPS (pH 7.0), 100 mM KCl, 1 mM EGTA, 0.2 mM NADH, 1 mM phosphoenol pyruvate, 10 IU/mL of pyruvate kinase, 10 IU/mL of lactate dehydrogenase, 7 µM of the calcium ionophore A23187 (Sigma), and CaCl2 was added to set free [Ca^2+] to three different concentrations. Ca^2+-ATPase activity was measured at three [Ca^2+]: [Ca^2+]MAX (saturating, pCa 5.4), [Ca^2+]MID (subsaturating, midpoint, pCa 6.2), and [Ca^2+]BAS (basal non-activating, pCa 8.0). 10 μg/mL of SR vesicle, calcium, compound (0.048 to 50 μM), and assay mix were incubated for 20 min at room temperature before measurement of functional assays with each of the 18 hit compounds, because a shorter incubation time than the FRET live-cell assays achieved optimal responses. The assay was started upon the addition of MgATP, at a final concentration of 5 mM (total volume to 80 μL), and absorbance was read at 340 nm in a SpectraMax Plus^384 microplate spectrophotometer (Molecular Devices, Sunnyvale, CA).
(§2) SERCA2a activity, F (rate of ATP hydrolysis or Ca^2+ uptake), was measured at varying pCa and varying compound concentration. F measured at [Ca^2+]MAX (saturating, pCa 5.4) or [Ca^2+]MID (subsaturating, midpoint, pCa 6.2) was corrected by subtracting the basal rate at pCa 8.0) and the % effect due to compound was reported. Concentration response curves (CRC) were fitted using the Hill function to determine VMAX (the activity at saturating [compound]), and EC50, the compound concentration at 50% effect.

SERCA2a [2] = biological target: T1, SERCA2a; assay: Oxalate-supported Fluo-4 Ca2+-uptake (Ca2+-transport) assay in pig cardiac SR (pCSR) vesicles; assay type: biochemical; conditions: for Ca2+-Uptake ΔFMAX / Ca2+-Uptake ΔFMID: maximal compound effect vs DMSO control, pCSR; for Effect on Ca2+-uptake (category, Fig. 4A): activators, categories activate / uncouple / inhibit; for CR (coupling ratio) VU/VA: maximum Ca2+-uptake rate / Ca2+-ATPase rate at [Ca2+]MAX, DMSO control = 0.66; for Increase in Ca2+-uptake: over [Ca2+]MAX and [Ca2+]MID; for Ca2+-Uptake C10: concentration yielding 10% effect; for Decrease (inhibition) of Ca2+-uptake at [Ca2+]MAX: size of decrease
Method: as §1
Ca^2+-transport assays were performed with similar porcine SR samples as in the Ca^2+-ATPase assays described above. The compound effect on the Ca^2+-transport activity of SERCA2a was determined using an oxalate-supported assay in which the change in fluorescence in a Ca^2+-sensitive dye, Fluor-4, was determined as previously described. A buffered solution containing 50 mM MOPS (pH 7.0), 100 mM KCl, 30 mg/mL sucrose, 1 mM EGTA, 10 mM potassium oxalate, 2 µM Fluo-4, 30 µg/mL porcine cardiac SR vesicles, CaCl2 calculated to reach the free [Ca^2+] (pCa 8.0, 6.2, and 5.4), and compound (0.048 to 50 μM) was dispensed into 384-well black walled, transparent bottomed plates (Greiner Bio-One) containing the tested small molecule and incubated at 22℃ for 20 min while covered and protected from light. To start the reaction, MgATP was added to a final concentration of 5 mM, and the decrease in 485-nm excited fluorescence of Fluo-4 was monitored at 520 nm for 15 min using a FLIPR Tetra (Molecular Devices, San Jose, CA).
as §2

[3] = biological target: T2, human two-color SERCA2a (2CS) biosensor (Homo sapiens, UniProt P16615, INS508[…]); assay: FRET concentration response curves (FLT-FRET) with the 2CS biosensor in live HEK cells; assay type: cell-based
T2 construct: expressed in transfected cells
T2 sequence (P16615 other isoform, or with tags, fused parts or gaps with the stated changes): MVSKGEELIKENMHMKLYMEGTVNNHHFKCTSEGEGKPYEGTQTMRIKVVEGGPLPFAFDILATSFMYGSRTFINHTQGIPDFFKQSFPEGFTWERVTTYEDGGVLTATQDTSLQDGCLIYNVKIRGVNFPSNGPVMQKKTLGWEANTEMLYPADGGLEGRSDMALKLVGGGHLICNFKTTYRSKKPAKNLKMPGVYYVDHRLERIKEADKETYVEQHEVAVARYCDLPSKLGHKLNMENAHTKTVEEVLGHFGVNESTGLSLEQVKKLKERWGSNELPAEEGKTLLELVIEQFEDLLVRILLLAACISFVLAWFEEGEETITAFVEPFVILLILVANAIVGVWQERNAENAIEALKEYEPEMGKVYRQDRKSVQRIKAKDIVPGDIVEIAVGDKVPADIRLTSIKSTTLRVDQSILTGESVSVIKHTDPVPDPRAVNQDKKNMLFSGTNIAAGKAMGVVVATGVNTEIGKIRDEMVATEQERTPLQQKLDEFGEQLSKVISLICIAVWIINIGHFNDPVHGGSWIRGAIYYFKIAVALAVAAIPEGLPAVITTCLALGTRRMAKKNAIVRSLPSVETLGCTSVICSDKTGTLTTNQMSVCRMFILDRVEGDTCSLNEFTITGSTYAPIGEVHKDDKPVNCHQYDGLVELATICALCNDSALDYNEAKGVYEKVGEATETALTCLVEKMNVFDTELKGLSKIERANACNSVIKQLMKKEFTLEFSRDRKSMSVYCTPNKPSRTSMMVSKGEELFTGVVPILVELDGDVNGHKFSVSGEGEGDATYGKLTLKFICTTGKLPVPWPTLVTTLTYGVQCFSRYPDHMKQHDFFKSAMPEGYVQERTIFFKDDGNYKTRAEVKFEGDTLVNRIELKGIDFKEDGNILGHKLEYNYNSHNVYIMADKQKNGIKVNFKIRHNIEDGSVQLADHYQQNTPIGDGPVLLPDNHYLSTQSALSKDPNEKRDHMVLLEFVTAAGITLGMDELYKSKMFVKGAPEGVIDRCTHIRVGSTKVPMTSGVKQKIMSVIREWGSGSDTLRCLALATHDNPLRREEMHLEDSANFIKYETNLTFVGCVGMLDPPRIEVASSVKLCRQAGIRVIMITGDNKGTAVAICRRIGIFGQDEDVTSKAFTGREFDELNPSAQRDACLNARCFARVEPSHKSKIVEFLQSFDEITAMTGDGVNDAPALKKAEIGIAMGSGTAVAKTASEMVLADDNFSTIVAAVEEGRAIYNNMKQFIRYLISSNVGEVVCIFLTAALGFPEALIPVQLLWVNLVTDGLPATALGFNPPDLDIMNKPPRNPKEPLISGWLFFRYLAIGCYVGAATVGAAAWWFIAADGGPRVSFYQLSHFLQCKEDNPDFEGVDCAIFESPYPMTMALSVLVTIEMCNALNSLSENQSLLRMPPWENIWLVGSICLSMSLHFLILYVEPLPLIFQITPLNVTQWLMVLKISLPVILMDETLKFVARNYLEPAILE
Excerpt: A two-color intramolecular human SERCA2a (2CS) biosensor, based on human cardiac SERCA2a fused to green fluorescent protein (eGFP) and red fluorescent protein (tagRFP) was developed to detect structural changes that are related to the functional changes of SERCA[20],[22],[25]. Briefly, tagRFP was genetically fused to the N-terminus of SERCA (A-domain) and eGFP was inserted as an intrasequence tag before residue 509 in the nucleotide-binding domain (N-domain)[60],[61]. Donor-only and acceptor-only (1CS) biosensors were created in a similar manner as the 2CS biosensor but with the construct containing either only eGFP or only tag-RFP, respectively. […] A null-biosensor construct consisting of eGFP and tagRFP connected by a 32-residue unstructured flexible linker peptide (G32R) was created as described previously[23],[25]. All constructs were cloned into expression vectors containing the genes for antibiotic resistance to G418, puromycin, or blasticidin.
Stable cell lines were generated using either human embryonic kidney (HEK) HEK293 (ATCC, Manassas, VA) or HEK293-6E (National Research Council, Canada) cells. Briefly, cells were transiently transfected with 2CS, 1CS, or G32R null-biosensor plasmids using Lipofecatime 3000 or 293fectin (Thermo Fisher Scientific). Flow cytometry was used to select and enrich for the population of cells expressing respective biosensors. Stable HEK293 cell lines were maintained in phenol red-free DMEM media (Gibco, Waltham, MA) supplemented with 2 mM GlutaMAX (Gibco, Waltham, MA), 10% fetal bovine serum (FBS) (Atlanta Biologicals, Lawrenceville, GA), 1 IU/mL penicillin/streptomycin (Gibco, Waltham, MA), and 250 μg/mL G418 (Fisher Scientific). Stable HEK293-6E cell lines were maintained in F17 media (Sigma Aldrich) supplemented with Kolliphor p188 (Sigma Aldrich, St. Louis, MO), […] GlutaMAX, and either 1 μg/mL puromycin (Invitrogen, Carlsbad, CA) or 2 μg/mL blasticidin (Goldbio) as a selection antibiotic. All cell lines were grown at 37 °C with 5% CO2.
FRET CRC assay plates (0.78–100 μM compound range) with at least ten different compound concentrations were made by adding the appropriate volume of compound or DMSO into black 384 well plates (Greiner Bio-One) using a Mosquito HV (SPTLabTech, United Kingdom). Subsequent Ca^2+-ATPase activity and Ca^2+-transport CRC assay plates (0–50 μM compound range) with repurchased compounds were made in a similar manner using with the Echo 550 (Beckman Coulter) using either 384 well transparent plates (Greiner Bio-One) or black-walled plates with transparent bottoms (Greiner Bio-One), respectively.
On each day of screening, cells were harvested, washed three times with PBS, and centrifuged at 300 g for 5 min. Cells were filtered using a 70 µm cell strainer and diluted to 1–2 × 10^6 cells/mL. Cell concentration and viability were assessed using the Cell countess (Invitrogen) and trypan blue assay. During assays, cells were constantly and gently stirred using a magnetic stir bar at room temperature, keeping the cells in suspension and evenly distributed to avoid clumping. HEK 293-cells expressing 2CS were dispensed at 5 μL or […] per well into assay plates (dispensed into 40 assay plates, each containing 1536 wells) pre-plated with compounds (from a DIVERset 50,000 compound library) using a Multdrop Combi liquid dispenser (Thermo Fisher Scientific, Pittsburg, PA) and sealed until needed. Because the kinetics of membrane permeability, diffusion, and/or binding of the compound to live cells may be compound-dependent, we tested two incubation times, 20 min and 120 min, for the FRET CRC. […] Plates containing eight-point concentration curves of three tool compounds (known SERCA effectors thapsigargin, BHQ, and CPA)[22] were used as positive controls for biosensor function and performance prior to running the full-scale FRET-HTS assay. […]

| SMILES | Ca2+-ATPase C10 (SERCA2a [1]; [Ca2+]MAX (pCa5.4)) [µM] | Ca2+-ATPase ΔFMAX (SERCA2a [1]; [Ca2+]MAX (pCa5.4)) | Ca2+-ATPase ΔFMID (SERCA2a [1]; [Ca2+]MID (pCa6.2)) | Effect on Ca2+-ATPase activity (category, Fig. 4A) (SERCA2a [1]) | Ca2+-Uptake ΔFMAX (SERCA2a [2]; [Ca2+]MAX (pCa5.4)) [%] | Ca2+-Uptake ΔFMID (SERCA2a [2]; [Ca2+]MID (pCa6.2)) | Effect on Ca2+-uptake (category, Fig. 4A) (SERCA2a [2]) | CR (coupling ratio) VU/VA (SERCA2a [2]) | Increase in Ca2+-uptake (SERCA2a [2]) | EC50 [3] [µM] | Increase in Ca2+-ATPase activity (SERCA2a [1]) | EC50 (SERCA2a [1]; [Ca2+]MAX (pCa5.4)) [µM] | Ca2+-ATPase C10 (SERCA2a [1]; [Ca2+]MID (pCa6.2)) [µM] | Ca2+-Uptake C10 (SERCA2a [2]; [Ca2+]MAX (pCa5.4)) [µM] | Decrease (inhibition) of Ca2+-uptake at [Ca2+]MAX (SERCA2a [2]) [%] | Ca2+-Uptake C10 (SERCA2a [2]; [Ca2+]MID (pCa6.2)) [µM] | Inhibition of Ca2+-uptake (class) (SERCA2a [2]; strong / moderate / mild) | EC50 (SERCA2a [1]; [Ca2+]MID (pCa6.2)) [µM] | EC50 (SERCA2a [2]; [Ca2+]MAX (pCa5.4)) [µM] | EC50 (SERCA2a [2]; [Ca2+]MID (pCa6.2)) [µM] |
| --- | --- | --- | --- | --- | --- | --- | --- | --- | --- | --- | --- | --- | --- | --- | --- | --- | --- | --- | --- | --- |
| O=C(c1cc(COc2ccc3ncccc3c2)on1)N1CCC(c2ccncc2)CC1 [Compound 2, 6-[(3-{[4-(4-pyridinyl)-1-piperidinyl]carbonyl}-5-isoxazolyl)methoxy]quinoline] | 48 | 16% and 16 ± 3% | 7% and 7 ± 3% | activate | 4 ± 6.1 | 4 ± 2.1% | uncouple | 0.53 | 0.5–10% | 1.4 ± 0.5 |  |  |  |  |  |  |  |  |  |  |
| O=C(c1cc(COc2ccc3c(c2)CCCC3)on1)N1CCC(c2ccncc2)CC1 [Compound 3, 4-[1-({5-[(5,6,7,8-tetrahydro-2-naphthalenyloxy)methyl]-3-isoxazolyl}carbonyl)-4-piperidinyl]pyridine] | 11.0 | 21 ± 5.1% | 30 ± 11% | activate |  | 6% and 6 ± 3.3% | inhibit | 0.39 |  | 1.6 ± 0.2 | 10–25% | 8.4 ± 3.1 | 14.8 | 17.5 | 20 |  |  |  |  |  |
| COc1ccc(Cc2noc(CN3CCN(c4nc5ccccc5s4)CC3)n2)cc1OC [Compound 5, 2-(4-{[3-(3,4-dimethoxybenzyl)-1,2,4-oxadiazol-5-yl]methyl}-1-piperazinyl)-1,3-benzothiazole] | 22.7 | 25% and 25 ± 3.3% | 35% and 35 ± 8.2% | activate |  | 20% and 20 ± 3.3% | inhibit | 0.47 |  | 1.5 ± 0.1 | 10–25% |  | 19.6 |  | 2 | 22.5 |  |  |  |  |
| CC1Cc2cc(CNC(=O)c3cc(C(C)C)nn3C)ccc2O1 (stereo not drawn) [Compound 9, 3-isopropyl-1-methyl-N-[(2-methyl-2,3-dihydro-1-benzofuran-5-yl)methyl]-1H-pyrazole-5-carboxamide] | 30.7 | 21% and 21 ± 5% | 10% and 10 ± 6% | activate | 5 ± 2.2 | 3 ± 2.4% | uncouple | 0.51 | 3–5% and 0.5–10% | 0.6 ± 0.1 |  | 24 ± 9 |  |  |  |  |  |  |  |  |
| COc1ccc(Cn2cc(C(=O)N(C)Cc3ccnc4ccccc34)nn2)cc1 [Compound 10, 1-(4-methoxybenzyl)-N-methyl-N-(4-quinolinylmethyl)-1H-1,2,3-triazole-4-carboxamide] | 7 |  |  |  |  |  |  | 0.35 |  | 5.6 ± 0.6 |  |  | 3.2 | 4.1 |  | 7.9 | Mild → M; also recorded: mild-to-moderate |  |  |  |
| COC(=O)CSc1ncc(-c2ccc(F)cc2)c(C2CCCN(C(=O)c3cccc(F)c3)C2)n1 (stereo not drawn) [Compound 11, methyl {[4-[1-(3-fluorobenzoyl)-3-piperidinyl]-5-(4-fluorophenyl)-2-pyrimidinyl]thio}acetate] | 0.8 |  |  |  |  |  |  | 0.13 |  | 14 ± 6.4 |  | 3.2 ± 0.4 | 1.2 | 0.2 |  | 0.5 |  | 3.6 ± 0.5 | 1.8 ± 0.04 | 2.8 ± 0.1 |
